Data reported in patent US20240116885A1, “BENZOTHIAZOLE AND QUINOLINE DERIVATIVES AND THEIR USE” (Shanghai Yao Yuan Biotechnology Co., Ltd., priority 2020, published 2024).

Columns and labels:
[1] = molecular target: ALPK1 (Homo sapiens (Human), UniProt Q96QP1); experiment: ALPK1 in vitro kinase assay (HTRF, TIFA phosphorylation); type: biochemical; settings: ADP-Heptose activated ALPK1
Description: ALPK1 kinase activity was measured in an in vitro assay using ADP-Heptose as the ALPK1 ligand and activator of its kinase activity and TIFA protein as the ALPK1 phosphorylation substrate. Since phosphorylated TIFA proteins oligomerize, Homogeneous Time-Resolved Fluorescence (HTRF) was used to measure protein:protein interaction between HA-tagged TIFA proteins as an indicator of TIFA phosphorylation.
In brief, dose-response studies were performed with HEK293 cells cultured in Dulbecco's Modified Eagle Medium (DMEM) supplemented 10% fetal bovine serum (FBS, Hyclone™) containing antibiotics (pen/strep, G418) in 384-well assay plates. Each well contained 0.1 mg TIFA, ALPK1 (2 nM final concentration in reaction mixture) and kinase buffer (100 mM of HEPES pH 7.4, 4 mM DTT, 40 mM MgCl2, 20 mM of β-Glycerol phosphate disodium salt, 0.4 mM of Na3VO4, 0.16 mg/mL). Titrations of the test compounds were prepared in dimethylsulphoxide (DMSO). The reaction was initiated by addition of ATP and ADP-Heptose.
For HTRF, samples were incubated with a Tb cryptate-labeled anti-HA antibody for capturing HA-tagged proteins according to the manufacturer's instructions (PerkinElmer™, CisBio™) and the fluorescence signal was quantified (Tecan Infinite F NANO+). HTRF signals were calculated as the HTRF ratio (ratio of fluorescence measured at 665 nm and 620 nm)×104 (thereby using the signal at 620 nm as an internal standard).
IC50 values were determined using 3- or 4-parameter logistic equation using GraphPad Prism version 6.00. The reference compound, A027, was used as a positive control for each plate.

[2] = test system: ALPK1-dependent NFκB reporter gene activation; experiment: NFκB gene reporter alkaline phosphatase assay in HEK293 G9 cells; type: cell-based; settings: Homo sapiens; HEK293 G9 cells stimulated with D-glycero-D-manno-6-fluoro-heptose-1β-S-ADP
Description: An alkaline phosphatase reporter assay system was used to measure inhibition of ALPK1-dependent NFκB reporter gene activation. Briefly, HEK293 cells stably expressing an NF-kB reporter (referred to herein as “G9 cells”) were maintained in DMEM as described above. For the assay, cells were seeded into 96-well plates at a density of 10,000 cells/well in Freestyle™ 293 Expression Medium (ThermoFisher), and allowed to attach overnight. Cells were pretreated with serially diluted compounds for 30 min and then stimulated with D-glycero-D-manno-6-fluoro-heptose-1β-S-ADP. […] NFkB gene activation was detected using the chromogenic substrate, para-nitrophenyl phosphate (pNPP) according to the manufacturer's protocols (pNPP Phosphatase Assay, Beyotime Biotechnology).

Sequence of ALPK1 (Q96QP1 whole entry): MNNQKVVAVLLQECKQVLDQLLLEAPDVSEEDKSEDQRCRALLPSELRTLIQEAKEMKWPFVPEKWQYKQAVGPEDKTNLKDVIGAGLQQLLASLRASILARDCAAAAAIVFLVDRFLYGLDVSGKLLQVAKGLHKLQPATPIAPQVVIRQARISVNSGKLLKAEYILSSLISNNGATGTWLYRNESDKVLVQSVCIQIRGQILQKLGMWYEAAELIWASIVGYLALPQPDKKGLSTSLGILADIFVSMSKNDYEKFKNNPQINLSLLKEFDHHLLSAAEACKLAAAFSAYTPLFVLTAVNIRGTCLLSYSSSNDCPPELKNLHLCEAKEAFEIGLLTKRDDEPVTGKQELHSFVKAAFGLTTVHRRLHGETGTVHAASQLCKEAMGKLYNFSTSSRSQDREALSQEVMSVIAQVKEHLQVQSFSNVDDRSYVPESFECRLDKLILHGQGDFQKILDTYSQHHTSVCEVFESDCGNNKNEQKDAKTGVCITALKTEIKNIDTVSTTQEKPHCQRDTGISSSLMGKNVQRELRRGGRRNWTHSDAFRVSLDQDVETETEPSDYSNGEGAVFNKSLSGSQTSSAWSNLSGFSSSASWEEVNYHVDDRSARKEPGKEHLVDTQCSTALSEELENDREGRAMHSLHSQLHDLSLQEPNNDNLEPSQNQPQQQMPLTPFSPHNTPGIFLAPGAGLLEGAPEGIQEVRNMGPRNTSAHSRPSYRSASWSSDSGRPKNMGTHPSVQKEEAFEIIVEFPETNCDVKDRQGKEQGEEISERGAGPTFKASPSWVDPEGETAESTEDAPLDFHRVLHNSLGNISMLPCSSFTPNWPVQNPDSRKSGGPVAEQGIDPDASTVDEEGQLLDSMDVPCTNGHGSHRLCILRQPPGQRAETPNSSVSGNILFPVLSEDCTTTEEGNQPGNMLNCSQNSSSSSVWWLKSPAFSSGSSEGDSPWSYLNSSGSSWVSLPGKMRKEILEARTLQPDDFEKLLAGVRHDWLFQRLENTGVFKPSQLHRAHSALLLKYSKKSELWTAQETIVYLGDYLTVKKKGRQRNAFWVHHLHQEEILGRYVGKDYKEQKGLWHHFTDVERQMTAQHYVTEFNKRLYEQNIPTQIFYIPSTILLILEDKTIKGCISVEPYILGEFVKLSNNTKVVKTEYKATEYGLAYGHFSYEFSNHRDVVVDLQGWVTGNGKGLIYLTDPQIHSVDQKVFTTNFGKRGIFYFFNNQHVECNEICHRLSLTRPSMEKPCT

Structure (SMILES)	IC50 [1] [nM]	IC50 [2] [nM]
COc1cccc2ccc(NC(=O)c3c(F)cc(N4CCNCC4)cc3F)nc12 [Compound Q001, 2,6-difluoro-N-(8-methoxyquinolin-2-yl)-4-(piperazin-1-yl)benzamide]	45	1240
COc1cccc2ccc(NC(=O)c3c(F)cc(N4CCN(C)CC4)cc3F)nc12 [Compound Q002, 2,6-difluoro-N-(8-methoxyquinolin-2-yl)-4-(4-methylpiperazin-1-yl)benzamide]	157	2300
COc1cccc2ccc(NC(=O)c3c(F)cc(N4CCC(O)CC4)cc3F)nc12 [Compound Q003, 2,6-difluoro-4-(4-hydroxypiperidin-1-yl)-N-(8-methoxyquinolin-2-yl)benzamide]	369	2970
COc1cccc2ccc(NC(=O)c3c(F)ccc(CN4CCNCC4)c3F)nc12 [Compound Q004, 2,6-difluoro-N-(8-methoxyquinolin-2-yl)-3-(piperazin-1-ylmethyl)benzamide]	33	4300
COc1cccc2ccc(NC(=O)c3c(F)ccc(N4CCNCC4)c3F)nc12 [Compound Q005, 2,6-difluoro-N-(8-methoxyquinolin-2-yl)-3-(piperazin-1-yl)benzamide]	258	1370
COc1cc(OC)c2nc(NC(=O)c3c(F)cc(N4CCNCC4)cc3F)ccc2c1 [Compound Q006, N-(6,8-dimethoxyquinolin-2-yl)-2,6-difluoro-4-(piperazin-1-yl)benzamide]	–	11100
COc1cc(F)cc2ccc(NC(=O)c3c(F)cc(N4CCNCC4)cc3F)nc12 [Compound Q007, 2,6-difluoro-N-(6-fluoro-8-methoxyquinolin-2-yl)-4-(piperazin-1-yl)benzamide]	176	6780
COc1cccc2c(C)cc(NC(=O)c3c(F)cc(N4CCNCC4)cc3F)nc12 [Compound Q008, 2,6-difluoro-N-(8-methoxy-4-methylquinolin-2-yl)-4-(piperazin-1-yl)benzamide]	149	2920
COc1cccc2ncc(NC(=O)c3c(F)cc(N4CCNCC4)cc3F)nc12 [Compound Q009, 2,6-difluoro-N-(8-methoxyquinoxalin-2-yl)-4-(piperazin-1-yl)benzamide]	178	3720
COc1cccc2sc(NC(=O)c3c(F)cc(N4CC5CC(C4)N5)cc3F)nc12 [Compound T001, 4-(3,6-diazabicyclo[3.1.1]heptan-3-yl)-2,6-difluoro-N-(4-methoxybenzo[d]thiazol-2-yl)benzamide]	95	1310
COc1cccc2sc(NC(=O)c3c(C)cc(N4CCNCC4)cc3F)nc12 [Compound T002, 2-fluoro-N-(4-methoxybenzo[d]thiazol-2-yl)-6-methyl-4-(piperazin-1-yl)benzamide]	176	2460
COc1cccc2sc(NC(=O)c3c(F)cc(-c4cccc(C(=O)O)c4)cc3F)nc12 [Compound T003, 3′,5′-difluoro-4′-((4-methoxybenzo[d]thiazol-2-yl)carbamoyl)-[1,1′-biphenyl]-3-carboxylic acid]	159	1490
CCN1CCN(c2cc(F)c(C(=O)Nc3nc4c(OC)cccc4s3)c(F)c2)CC1 [Compound T004, 4-(4-ethylpiperazin-1-yl)-2,6-difluoro-N-(4-methoxybenzo[d]thiazol-2-yl)benzamide]	131	1980
CCCN1CCN(c2cc(F)c(C(=O)Nc3nc4c(OC)cccc4s3)c(F)c2)CC1 [Compound T005, 2,6-difluoro-N-(4-methoxybenzo[d]thiazol-2-yl)-4-(4-propylpiperazin-1-yl)benzamide]	81	2420
COc1cccc2sc(NC(=O)c3c(Cl)cc(N4CCNCC4)cc3Cl)nc12 [Compound T008, 2,6-dichloro-N-(4-methoxybenzo[d]thiazol-2-yl)-4-(piperazin-1-yl)benzamide]	57	1950
O=C(Nc1nc2c(Br)cccc2s1)c1c(F)cccc1F [Compound T009, N-(4-bromobenzo[d]thiazol-2-yl)-2,6-difluorobenzamide]	415	5860
COc1cccc2sc(NC(=O)c3c(F)cc(N4CCNCC4)cc3Cl)nc12 [Compound T010, 2-chloro-6-fluoro-N-(4-methoxybenzo[d]thiazol-2-yl)-4-(piperazin-1-yl)benzamide]	49	1640

Structure (SMILES)	IC50 [1] [nM]	IC50 [2] [nM]
COC(=O)C1CCN(c2cc(F)c(C(=O)Nc3nc4c(OC)cccc4s3)c(F)c2)CC1 [Compound T011, methyl 1-(3,5-difluoro-4-((4-methoxybenzo[d]thiazol-2-yl)carbamoyl)phenyl)piperidine-4-carboxylate]	420	6650
O=C(Nc1nc2c(C3CC3)cccc2s1)c1c(F)cccc1F [Compound T012, N-(4-cyclopropylbenzo[d]thiazol-2-yl)-2,6-difluorobenzamide]	970	5950
COc1cccc2sc(NC(=O)c3c(F)cc(NCCN(C)C)cc3F)nc12 [Compound T013, 4-((2-(dimethylamino)ethyl)amino)-2,6-difluoro-N-(4-methoxybenzo[d]thiazol-2-yl)benzamide]	507	5220
COc1cccc2sc(NC(=O)c3c(F)cc(N4CCNCC4C)cc3F)nc12 (centres unmarked) [Compound T014, 2,6-difluoro-N-(4-methoxybenzo[d]thiazol-2-yl)-4-(2-methylpiperazin-1-yl)benzamide]	–	1310
COc1cccc2sc(NC(=O)c3c(F)cc(N4CCNC(C)C4)cc3F)nc12 (centres unmarked) [Compound T015, 2,6-difluoro-N-(4-methoxybenzo[d]thiazol-2-yl)-4-(3-methylpiperazin-1-yl)benzamide]	349	4470
O=C(Nc1nc2c(Br)cccc2s1)c1c(F)ccc(N2CCNCC2)c1F [Compound T016, N-(4-bromobenzo[d]thiazol-2-yl)-2,6-difluoro-3-(piperazin-1-yl)benzamide]	47	2220
COc1cccc2sc(NC(=O)c3c(F)cc(CN4CCNCC4)cc3F)nc12 [Compound T018, 2,6-difluoro-N-(4-methoxybenzo[d]thiazol-2-yl)-4-(piperazin-1-ylmethyl)benzamide]	–	2460
O=C(Nc1nc2c(Br)cccc2s1)c1c(F)cc(CN2CCNCC2)cc1F [Compound T020, N-(4-bromobenzo[d]thiazol-2-yl)-2,6-difluoro-4-(piperazin-1-ylmethyl)benzamide]	100	1570
O=C(Nc1nc2c(Br)cccc2s1)c1c(F)cc(CCN2CCNCC2)cc1F [Compound T021, N-(4-bromobenzo[d]thiazol-2-yl)-2,6-difluoro-4-(2-(piperazin-1-yl)ethyl)benzamide]	148	1200
COc1cccc2sc(NC(=O)c3c(F)cc(N4CCOCC4)cc3F)nc12 [Compound T022, 2,6-difluoro-N-(4-methoxybenzo[d]thiazol-2-yl)-4-morpholinobenzamide]	295	2010
COc1cccc2sc(NC(=O)c3c(F)cc(NCCO)cc3F)nc12 [Compound T023, 2,6-difluoro-4-((2-hydroxyethyl)amino)-N-(4-methoxybenzo[d]thiazol-2-yl)benzamide]	289	4300
COc1cccc2sc(NC(=O)c3c(F)cc(N4CCN(Cc5ccccc5)C(=O)C4)cc3F)nc12 [Compound T024, 4-(4-benzyl-3-oxopiperazin-1-yl)-2,6-difluoro-N-(4-methoxybenzo[d]thiazol-2-yl)benzamide]	321	1150
O=C(Nc1nc2c(F)cc(F)cc2s1)c1c(F)cc(N2CCNCC2)cc1F [Compound T035]	–	5020
O=C(Nc1nc2ccccc2s1)c1c(F)cc(N2CCNCC2)cc1F [Compound T041, N-(benzo[d]thiazol-2-yl)-2,6-difluoro-4-(piperazin-1-yl)benzamide]	–	3960
CC(C)Oc1cccc2sc(NC(=O)c3c(F)cc(N4CCNCC4)cc3F)nc12 [Compound T056, 2,6-difluoro-N-(4-isopropoxybenzo[d]thiazol-2-yl)-4-(piperazin-1-yl)benzamide]	–	7400
CCOc1cccc2sc(NC(=O)c3c(F)cc(N4CCNCC4)cc3F)nc12 [Compound T057, N-(4-ethoxybenzo[d]thiazol-2-yl)-2,6-difluoro-4-(piperazin-1-yl)benzamide]	–	8700
